Reference: patent publication US12220414B2, “Use of sGC stimulators for the treatment of mitochondrial disorders” (Tisento Therapeutics Inc., priority 2018, dated 2025)

Tests used:
[1] = tested on: ADMA; conditions: diabetic patients; fourteen-day study (Hanrahan et al 2018); cited from earlier work
[2] = tested on: Pparγ; assay: B-DNA gene expression assay, carbon tetrachloride (CCl4) rat model, liver; assay type: in vivo, Sprague-Dawley rat; conditions: CCl4 rats; 3 mg/kg; FIG. 2C
Procedure: Male, Sprague-Dawley rat were dosed with 0.25 ml/kg of CCl4 PO three times a week diluted in corn oil for the duration of the study (8 weeks). Control animals received an equivalent volume of corn oil. Two weeks after beginning the administration of CCl4, animals were given a chow admixture containing Compound A calculated to achieve doses of 3 mg/kg/day.
(§1) For gene expression analysis, 5-10 mg of tissue samples from ZSF1 rat liver, CCl4 rat liver, or DIO mice brain hypothalamus, or approximately 50 mg of white adipose tissue (WAT) from ZSF1 rat were homogenized and processed using QuantiGene sample processing kit according to manufacturer's instruction (Affymatrix, Fremont, CA). Gene expression in the tissue samples was measured using a QuantiGene 2.0 Plex Assay kit (Affymetrix) and multiplex gene panel specifically designed for each animal model following manufacture instructions. Analytes were measured using Luminex MAGPIX™ (Bio-Rad, Hercules, CA). Median fluorescence intensity (MFI) was generated for each gene target and normalized to the geometric mean expression of selected housekeeping genes, which were chosen to match the target transcript abundance.

[3] = tested on: PGC1α; assay: B-DNA gene expression assay, ZSF1 rat model; assay type: in vivo; conditions: ZSF1 obese rats
Procedure: There are 4 groups of animals in the study design: • 1. ZSF1 Lean—Vehicle (n=6) • 2. ZSF1 Obese—Vehicle (n=9) • 3. ZSF1 Obese—Compound A 10 mg/kg/day (n=9) • 4. […]
Animals in Group 4 was placed on drinking water containing enalapril and kept on Purina 5008 rodent chow (C13000). Animals in Groups 1-3 were kept on Purina 5008 rodent chow and drinking water. Ten days after the initiation of enalapril treatment, […] received Compound A at 10 mg/kg/day, respectively for 11 weeks (monotherapy). Beginning on day 10, animals in Groups 3 and 4 received Compound A at 10 mg/kg/day in addition to enalapril for an additional 11 weeks (combination therapy). […]
as §1, with “Median fluorescence intensity (MFI) was generated for each gene target and normalized to the geometric mean expression of selected housekeeping genes, which were chosen to match the target transcript abundance.” left out

[4] = tested on: Pparα; assay: B-DNA gene expression assay, DIO mouse model, WAT; assay type: in vivo; conditions: DIO mice; 6 mg/kg in diet, 28 days; FIG. 2B (eWAT)
Procedure: (§2) Animals were fed either chow or high fat diet (Research Diets). The lean mice were maintained on a standard chow diet. The obese mice were given 60% high fat diet (HFD) starting at 6 weeks of age. All animals were allowed free access to drinking water and chow. The study began when the mice were 12 weeks of age and concluded after 4 weeks (16 weeks of age). The obese control group was maintained on HFD. Groups receiving compound treatments were fed with HFD containing 90 mg Compound A/kg diet (an approximate dose of 6 mg/kg) or 45 mg vericiguat/kg diet (an approximate dose of 3 mg/kg). Body weights were determined twice weekly and food intake was measured daily for 28 days. […]
as §1, with “Median fluorescence intensity (MFI) was generated for each gene target and normalized to the geometric mean expression of selected housekeeping genes, which were chosen to match the target transcript abundance.” left out

[5] = tested on: AMPK; assay: B-DNA gene expression assay, DIO mouse model, WAT; assay type: in vivo; conditions: DIO mice; 6 mg/kg in diet, 28 days; FIG. 2A (AMPKα1, eWAT)
Procedure: as §2
as §1, with “Median fluorescence intensity (MFI) was generated for each gene target and normalized to the geometric mean expression of selected housekeeping genes, which were chosen to match the target transcript abundance.” left out

[6] = tested on: PGC1α; assay: B-DNA gene expression assay, diet-induced obesity (DIO) mouse model, hypothalamus; assay type: in vivo; conditions: DIO mice, compound in high fat diet; FIG. 1C
Procedure: as §2
as §1, with “Median fluorescence intensity (MFI) was generated for each gene target and normalized to the geometric mean expression of selected housekeeping genes, which were chosen to match the target transcript abundance.” left out

[7] = tested on: LHON patient cells GM10742; assay: ATP assay (ATPlite); assay type: cell-based, human; conditions: compound alone or in combination with DETA, 24 hrs
Procedure: (§3) Lymphoblast cells of LHON patient (GM11605 and GM10742) and Leigh patient (GM13740) were purchased from Coriell institute and cultured according to recommended growth condition from the vendor. The culture medium RPMI-1640 (ATCC, catalog #30-2006) containing 15% fetal bovine serum (Corning catalog #35-015-CV).
(§4) Corielll cells were plated on 96-well V-bottom culture plate (Corning Catalog #3894) at density of 200,000 cells per well in 90 ul RPMI-1640 media containing 2% FBS. Three hours later, 10 μL per well of 10× compounds (at its final conc.) diluted in RPMI-1640 media containing 2% FBS were added to the cells and incubated at 37 C for 24 hrs. The next day, ATP levels in the cells were measure using ATPlite kit (PerkinElmer Cat #6016943)

[8] = tested on: LHON patient cells GM11605; assay: ATP assay (ATPlite); assay type: cell-based, human; conditions: compound alone or in combination with DETA, 24 hrs
Procedure: as §3, §4

[9] = tested on: Leigh patient cells GM13740; assay: ATP assay (ATPlite); assay type: cell-based, human; conditions: compound alone or in combination with DETA, 24 hrs
Procedure: as §3, §4

[10] = tested on: DDAH2; assay: bDNA gene expression assay in patient cells; assay type: cell-based, human; conditions: in the presence of DETA
Procedure: as §3
(§5) Coriell cells were plated on 96-well V-bottom culture plate (Corning Catalog #3894) at density of 200,000 cells per well in 90 ul RPMI-1640 media containing 2% FBS. Three hours later, 10 μL per well of 10× compounds (at its final conc.) diluted in RPMI-1640 media containing 2% FBS were added to the cells and incubated at 37 C for 24 hrs. The next day, cells were spun down by centrifuging in a benchtop centrifuge (Beckman Model #TJ-25) at 300 g for 5 min, media was removed and cell pellets were lysed in 100 μL/well with lysis mixture provided by QuantiGene sample processing kit (Affymetrix catalog #QS010). Gene expression in the cell lysates was measured using a QuantiGene 2.0 Plex Assay kit (Affymetrix catalog #QP1013) and multiplex gene panel (Thermo/Fisher, plex set #QGP-150-M19022101) according to manufacturer's protocols. Analytes were measured using Luminex MAGPIX™ (Bio-Rad, Hercules, CA). Median fluorescence intensity (MFI) was generated for each gene target and normalized to the geometric mean expression of three housekeeping genes (Hprt1, Ppib and Polr2a), which were chosen to match the target transcript abundance.

[11] = tested on: TFAM; assay: bDNA gene expression assay in patient cells; assay type: cell-based, human; conditions: in the presence of DETA
Procedure: as §3, §5

[12] = target: T1, sGC (Homo sapiens, UniProt Q02153); assay: cGMP measurement in mitochondrial disease patient lymphoblast cells; assay type: cell-based; conditions: in combination with DETA
T1 construct: confirming functional expression of sGC in these patient cells; host or cells: human LHON and Leigh patient lymphoblast cells
T1 sequence (Q02153 1-619): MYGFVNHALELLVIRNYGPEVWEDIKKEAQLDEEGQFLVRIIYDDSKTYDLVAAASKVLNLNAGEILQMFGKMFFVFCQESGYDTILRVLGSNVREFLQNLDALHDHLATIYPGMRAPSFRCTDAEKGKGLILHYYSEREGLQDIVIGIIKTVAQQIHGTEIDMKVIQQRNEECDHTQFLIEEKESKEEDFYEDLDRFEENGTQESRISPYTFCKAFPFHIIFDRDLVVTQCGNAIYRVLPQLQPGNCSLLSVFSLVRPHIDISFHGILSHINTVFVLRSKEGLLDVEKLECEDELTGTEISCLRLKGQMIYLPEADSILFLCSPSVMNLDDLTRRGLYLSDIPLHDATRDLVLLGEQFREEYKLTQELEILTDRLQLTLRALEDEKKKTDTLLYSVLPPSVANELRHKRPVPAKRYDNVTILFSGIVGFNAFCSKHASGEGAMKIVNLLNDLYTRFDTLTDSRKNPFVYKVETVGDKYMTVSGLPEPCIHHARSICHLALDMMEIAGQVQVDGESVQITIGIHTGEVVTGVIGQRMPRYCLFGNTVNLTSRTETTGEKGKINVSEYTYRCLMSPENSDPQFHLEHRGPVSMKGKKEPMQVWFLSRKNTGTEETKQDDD
T1 sequence (Q02108 1-690 partner): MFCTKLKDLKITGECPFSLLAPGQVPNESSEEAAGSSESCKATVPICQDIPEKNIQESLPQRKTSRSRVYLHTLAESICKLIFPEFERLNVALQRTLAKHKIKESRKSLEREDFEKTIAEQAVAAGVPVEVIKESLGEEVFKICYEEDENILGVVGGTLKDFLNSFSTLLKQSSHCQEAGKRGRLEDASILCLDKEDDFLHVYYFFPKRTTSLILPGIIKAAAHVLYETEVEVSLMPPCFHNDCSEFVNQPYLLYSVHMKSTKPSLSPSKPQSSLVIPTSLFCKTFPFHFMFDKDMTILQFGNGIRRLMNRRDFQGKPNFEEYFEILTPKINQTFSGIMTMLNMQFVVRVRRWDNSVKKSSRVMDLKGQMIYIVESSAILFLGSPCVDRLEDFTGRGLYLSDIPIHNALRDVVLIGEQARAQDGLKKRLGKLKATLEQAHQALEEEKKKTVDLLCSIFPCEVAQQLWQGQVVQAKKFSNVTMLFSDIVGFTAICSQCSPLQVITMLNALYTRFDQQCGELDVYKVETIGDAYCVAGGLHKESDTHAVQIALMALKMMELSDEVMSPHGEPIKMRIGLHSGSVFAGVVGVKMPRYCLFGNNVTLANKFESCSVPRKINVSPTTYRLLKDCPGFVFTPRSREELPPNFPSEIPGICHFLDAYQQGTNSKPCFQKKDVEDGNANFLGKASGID
Procedure: as §3
On the day of the assay, Coriell cells were plated on 96-well V-bottom culture plate (Corning Catalog #3894) at density of 200,000 cells per well in 100 ul culture media. Right before the assay, cells were spun down by centrifuging in a benchtop centrifuge (Beckman Model #TJ-25) at 300 g for 5 min, media was removed and cell pellets were carefully washed once with 200 μL of HBSS containing Ca^2+ and Mg^2+ (Gibco catalog #14025-075). The cells were spun down, then 90 μL per well of HBSS containing 0.5 mM IBMX was added to the cells and were incubated at 37° C. for 15 min. Then 10 μL per well of 10× compounds (at its final conc.) diluted in HBSS solution containing IBMX plus different concentration of NO donor, DETA (final concentration of 0, 10 μM, 30 μM) was added to the cells and incubated at 37° C. for another 20 min. Cell pellets were spun down and lysed with 0.1 N HCl (100 ul/well). cGMP was measured using a cGMP Biotrak EIA kit (GE cat no. RPN226). cGMP concentrations of the samples were calculated from the standard curve.

OC(CNc1nc(-c2cc(-c3ccon3)n(Cc3ccccc3F)n2)ncc1F)(C(F)(F)F)C(F)(F)F [Compound A]
levels of circulating ADMA [1]: reduced | gene expression level of Pparγ in liver [2]: increased | gene expression level of PGC1α in white adipose tissue (WAT) ([3]; 10 mg/kg in combination with enalapril at 3 mg/kg, FIG. 1A): increased | gene expression level of Pparα in WAT [4]: increased | gene expression level of AMPK in WAT [5]: increased

Fc1ccccc1Cc1nc(-c2nc(C(F)(F)F)n[nH]2)cn2ccnc12 [Compound B]
PGC1α expression in hypothalamus [6]: increased PGC1α expression significantly | ATP production / ATP level [7]: increase | ATP production / ATP level [8]: increase | ATP production / ATP level [9]: increase | DDAH2 gene expression level ([10]; LHON patient cells (GM11605), FIG. 5B): increased | DDAH2 gene expression level ([10]; Leigh patient cells (GM13740), FIG. 6B): increased | TFAM gene expression level ([11]; LHON patient cells (GM11605), FIG. 5A): increased | TFAM gene expression level ([11]; Leigh patient cells (GM13740), FIG. 6A): increased

NC(=O)[C@](O)(CNc1nc(-c2cc(-c3ccon3)n(Cc3ccccc3F)n2)ncc1F)C(F)(F)F [Compound D]
gene expression level of PGC1α in liver ([3]; 30 mg/kg in combination with enalapril at 3 mg/kg, FIG. 1B): increased | ATP production / ATP level [9]: increased ATP levels significantly

Fc1ccccc1Cn1nc(-c2nc(C(F)(F)F)n[nH]2)c2cccnc21 [Compound E]
cGMP formation ([12]; LHON patient cells GM10742, FIG. 3B): significantly activated | cGMP formation ([12]; LHON patient cells GM11605, FIG. 3A): significantly activated | cGMP formation ([12]; Leigh patient cells GM13740, FIG. 3C): significantly activated | ATP production / ATP level [8]: significantly increase | ATP production / ATP level [9]: significantly increase
